{"source": "patent US9951028B2", "about": "“Agricultural chemicals” (REDAG CROP PROTECTION LTD, priority 2013, dated 2018)", "key": {"[1]": {"system": "white mustard Sinapsis alba", "test": "Herbicidal efficacy screen, potter tower spray, necrosis assessed", "assay_type": "in vivo", "experimental": "(§1) Compounds 22, 23 and 24 were screened for herbicidal efficacy against target plants: garden cress, Lepidium sativum, common chickweed, Stellaria media, and white mustard […] alba Plants were obtained as seeds and were grown to the 2-4 true leaf stage. Plants were grown under laboratory conditions, individually in seed trays. Each plant (in an approximately 3 cm diameter plug) was then detached from the tray for spraying. The compounds were screened at a range of five concentrations, diluted in acetone and TweenTM. A carrier only control was also conducted. Treatments were applied directly onto the plants, using a potter tower, at a specified application rate. One plant of each species was sprayed using a potter tower. The 3 different types of plants were placed on a 10 cm diameter platform directly beneath the potter sprayer and sprayed simultaneously. The growth of the plants and any Phytotoxicity effects were then assessed at intervals over 21 days, according to EPPO guideline PP1/135. Five replicas were performed for each treatment, for each species. In the tables below C represents a percentage increase in necrosis relative to the control of 0.1-50; B represents a percentage inhibition of 50-80; and A represents a percentage inhibition of 80-100."}, "[2]": {"system": "common chickweed, Stellaria media", "test": "Herbicidal efficacy screen, potter tower spray, necrosis assessed", "assay_type": "in vivo", "experimental": "as §1"}, "[3]": {"details": "12.5 g/ha, day 1 post application"}, "[4]": {"details": "12.5 g/ha, day 2 post application"}, "[5]": {"details": "12.5 g/ha, day 3 post application"}, "[6]": {"details": "12.5 g/ha, day 4 post application"}, "[7]": {"details": "12.5 g/ha, day 5 post application"}, "[8]": {"details": "12.5 g/ha, day 7 post application"}, "[9]": {"details": "12.5 g/ha, day 10 post application"}, "[10]": {"details": "25 g/ha, day 1 post application"}, "[11]": {"details": "25 g/ha, day 2 post application"}, "[12]": {"details": "25 g/ha, day 3 post application"}, "[13]": {"details": "25 g/ha, day 4 post application"}, "[14]": {"details": "25 g/ha, day 5 post application"}, "[15]": {"details": "25 g/ha, day 7 post application"}, "[16]": {"details": "25 g/ha, day 10 post application"}, "[17]": {"details": "50 g/ha, day 1 post application"}, "[18]": {"details": "50 g/ha, day 2 post application"}, "[19]": {"details": "50 g/ha, day 3 post application"}}}
{"smiles": "CC(C)N(C)S(=O)(=O)NCc1cc(-n2c(=O)cc(C(F)(F)F)n(C)c2=O)c(F)cc1Cl", "note": "[Compound 23, 1-[4-Chloro-2-fluoro-5-[[(isopropyl(methyl)sulfamoyl)amino]methyl]phenyl]-3-methyl-2,6-dioxo-4-(trifluoromethyl)pyrimidine]", "values": [{"measurement": "Average of necrosis", "setting": "[1]; [3]", "value": "C (C represents a percentage increase in necrosis relative to the control of 0.1-50)"}, {"measurement": "Average of necrosis", "setting": "[1]; [4]", "value": "C (C represents a percentage increase in necrosis relative to the control of 0.1-50)"}, {"measurement": "Average of necrosis", "setting": "[1]; [5]", "value": "C (C represents a percentage increase in necrosis relative to the control of 0.1-50)"}, {"measurement": "Average of necrosis", "setting": "[1]; [6]", "value": "C (C represents a percentage increase in necrosis relative to the control of 0.1-50)"}, {"measurement": "Average of necrosis", "setting": "[1]; [7]", "value": "C (C represents a percentage increase in necrosis relative to the control of 0.1-50)"}, {"measurement": "Average of necrosis", "setting": "[1]; [8]", "value": "C (C represents a percentage increase in necrosis relative to the control of 0.1-50)"}, {"measurement": "Average of necrosis", "setting": "[1]; [9]", "value": "C (C represents a percentage increase in necrosis relative to the control of 0.1-50)"}, {"measurement": "Average of necrosis", "setting": "[1]; [10]", "value": "C (C represents a percentage increase in necrosis relative to the control of 0.1-50)"}, {"measurement": "Average of necrosis", "setting": "[1]; [11]", "value": "C (C represents a percentage increase in necrosis relative to the control of 0.1-50)"}, {"measurement": "Average of necrosis", "setting": "[1]; [12]", "value": "C (C represents a percentage increase in necrosis relative to the control of 0.1-50)"}, {"measurement": "Average of necrosis", "setting": "[1]; [13]", "value": "C (C represents a percentage increase in necrosis relative to the control of 0.1-50)"}, {"measurement": "Average of necrosis", "setting": "[1]; [14]", "value": "C (C represents a percentage increase in necrosis relative to the control of 0.1-50)"}, {"measurement": "Average of necrosis", "setting": "[1]; [15]", "value": "C (C represents a percentage increase in necrosis relative to the control of 0.1-50)"}, {"measurement": "Average of necrosis", "setting": "[1]; [16]", "value": "C (C represents a percentage increase in necrosis relative to the control of 0.1-50)"}, {"measurement": "Average of necrosis", "setting": "[1]; [17]", "value": "C (C represents a percentage increase in necrosis relative to the control of 0.1-50)"}, {"measurement": "Average of necrosis", "setting": "[1]; [18]", "value": "C (C represents a percentage increase in necrosis relative to the control of 0.1-50)"}, {"measurement": "Average of necrosis", "setting": "[1]; [19]", "value": "C (C represents a percentage increase in necrosis relative to the control of 0.1-50)"}, {"measurement": "Average of necrosis", "setting": "[1]; 50 g/ha, day 4 post application", "value": "C (C represents a percentage increase in necrosis relative to the control of 0.1-50)"}, {"measurement": "Average of necrosis", "setting": "[1]; 50 g/ha, day 5 post application", "value": "C (C represents a percentage increase in necrosis relative to the control of 0.1-50)"}, {"measurement": "Average of necrosis", "setting": "[1]; 50 g/ha, day 7 post application", "value": "C (C represents a percentage increase in necrosis relative to the control of 0.1-50)"}, {"measurement": "Average of necrosis", "setting": "[1]; 50 g/ha, day 10 post application", "value": "C (C represents a percentage increase in necrosis relative to the control of 0.1-50)"}, {"measurement": "Average of necrosis", "setting": "[1]; 100 g/ha, day 1 post application", "value": "C (C represents a percentage increase in necrosis relative to the control of 0.1-50)"}, {"measurement": "Average of necrosis", "setting": "[1]; 100 g/ha, day 2 post application", "value": "C (C represents a percentage increase in necrosis relative to the control of 0.1-50)"}, {"measurement": "Average of necrosis", "setting": "[1]; 100 g/ha, day 3 post application", "value": "C (C represents a percentage increase in necrosis relative to the control of 0.1-50)"}, {"measurement": "Average of necrosis", "setting": "[1]; 100 g/ha, day 4 post application", "value": "C (C represents a percentage increase in necrosis relative to the control of 0.1-50)"}, {"measurement": "Average of necrosis", "setting": "[1]; 100 g/ha, day 5 post application", "value": "C (C represents a percentage increase in necrosis relative to the control of 0.1-50)"}, {"measurement": "Average of necrosis", "setting": "[1]; 100 g/ha, day 7 post application", "value": "C (C represents a percentage increase in necrosis relative to the control of 0.1-50)"}, {"measurement": "Average of necrosis", "setting": "[1]; 100 g/ha, day 10 post application", "value": "C (C represents a percentage increase in necrosis relative to the control of 0.1-50)"}, {"measurement": "Average of necrosis", "setting": "[1]; 200 g/ha, day 1 post application", "value": "C (C represents a percentage increase in necrosis relative to the control of 0.1-50)"}, {"measurement": "Average of necrosis", "setting": "[1]; 200 g/ha, day 2 post application", "value": "C (C represents a percentage increase in necrosis relative to the control of 0.1-50)"}, {"measurement": "Average of necrosis", "setting": "[1]; 200 g/ha, day 3 post application", "value": "C (C represents a percentage increase in necrosis relative to the control of 0.1-50)"}, {"measurement": "Average of necrosis", "setting": "[1]; 200 g/ha, day 4 post application", "value": "C (C represents a percentage increase in necrosis relative to the control of 0.1-50)"}, {"measurement": "Average of necrosis", "setting": "[1]; 200 g/ha, day 5 post application", "value": "C (C represents a percentage increase in necrosis relative to the control of 0.1-50)"}, {"measurement": "Average of necrosis", "setting": "[1]; 200 g/ha, day 7 post application", "value": "C (C represents a percentage increase in necrosis relative to the control of 0.1-50)"}, {"measurement": "Average of necrosis", "setting": "[1]; 200 g/ha, day 10 post application", "value": "C (C represents a percentage increase in necrosis relative to the control of 0.1-50)"}, {"measurement": "Average of necrosis", "setting": "[2]; [3]", "value": "C (C represents a percentage increase in necrosis relative to the control of 0.1-50)"}, {"measurement": "Average of necrosis", "setting": "[2]; [4]", "value": "C (C represents a percentage increase in necrosis relative to the control of 0.1-50)"}, {"measurement": "Average of necrosis", "setting": "[2]; [5]", "value": "C (C represents a percentage increase in necrosis relative to the control of 0.1-50)"}, {"measurement": "Average of necrosis", "setting": "[2]; [6]", "value": "C (C represents a percentage increase in necrosis relative to the control of 0.1-50)"}, {"measurement": "Average of necrosis", "setting": "[2]; [7]", "value": "B (B represents a percentage inhibition of 50-80)"}, {"measurement": "Average of necrosis", "setting": "[2]; [8]", "value": "B (B represents a percentage inhibition of 50-80)"}, {"measurement": "Average of necrosis", "setting": "[2]; [9]", "value": "A (A represents a percentage inhibition of 80-100)"}, {"measurement": "Average of necrosis", "setting": "[2]; [10]", "value": "C (C represents a percentage increase in necrosis relative to the control of 0.1-50)"}, {"measurement": "Average of necrosis", "setting": "[2]; [11]", "value": "C (C represents a percentage increase in necrosis relative to the control of 0.1-50)"}, {"measurement": "Average of necrosis", "setting": "[2]; [12]", "value": "C (C represents a percentage increase in necrosis relative to the control of 0.1-50)"}, {"measurement": "Average of necrosis", "setting": "[2]; [13]", "value": "C (C represents a percentage increase in necrosis relative to the control of 0.1-50)"}, {"measurement": "Average of necrosis", "setting": "[2]; [14]", "value": "B (B represents a percentage inhibition of 50-80)"}, {"measurement": "Average of necrosis", "setting": "[2]; [15]", "value": "B (B represents a percentage inhibition of 50-80)"}, {"measurement": "Average of necrosis", "setting": "[2]; [16]", "value": "B (B represents a percentage inhibition of 50-80)"}, {"measurement": "Average of necrosis", "setting": "[2]; [17]", "value": "C (C represents a percentage increase in necrosis relative to the control of 0.1-50)"}, {"measurement": "Average of necrosis", "setting": "[2]; [18]", "value": "C (C represents a percentage increase in necrosis relative to the control of 0.1-50)"}, {"measurement": "Average of necrosis", "setting": "[2]; [19]", "value": "C (C represents a percentage increase in necrosis relative to the control of 0.1-50)"}]}
